Assays:
T-47D = test: panel of 60 human tumor cell lines, growth inhibition (Breast Cancer); conditions: T-47D
OVCAR-5 = test: panel of 60 human tumor cell lines, growth inhibition (Ovarian Cancer); conditions: OVCAR-5
ACHN = test: panel of 60 human tumor cell lines, growth inhibition (Renal Cancer)
COLO 205 = test: panel of 60 human tumor cell lines, growth inhibition (Colon Cancer); conditions: COLO 205
K-562 = test: panel of 60 human tumor cell lines, growth inhibition (Leukemia); conditions: K-562
HS 578T = test: panel of 60 human tumor cell lines, growth inhibition (Breast Cancer); conditions: for Percent Growth: HS 57BT
NCI-H522 = test: panel of 60 human tumor cell lines, growth inhibition (Non-Small Cell Lung Cancer); conditions: NCI-H522
UO-31 = test: panel of 60 human tumor cell lines, growth inhibition (Renal Cancer); conditions: UO-31
MDA-MB-435 = test: panel of 60 human tumor cell lines, growth inhibition (Melanoma); conditions: MDA-MB-435

SMILES: C=C1C(=O)O[C@H]2[C@H]1CC/C(COC(=O)N1CCN(C)CC1)=C\CC[C@@]1(C)O[C@@H]21 [JVM 2-44]
- GI50 (T-47D): 4.52 µM
- TGI (T-47D): 1.94E−5
- Mean Optical Densities (T-47D; Log10 Concentration −4.0): 0.323
- Percent Growth (T-47D; Log10 Concentration −4.0): −56%
- Mean Optical Densities (T-47D; Log10 Concentration −5.0): 0.946
- Percent Growth (T-47D; Log10 Concentration −5.0): 23%
- Mean Optical Densities (T-47D; Log10 Concentration −6.0): 1.660
- Percent Growth (T-47D; Log10 Concentration −6.0): 102%
- Mean Optical Densities (T-47D; Log10 Concentration −7.0): 1.593
- Percent Growth (T-47D; Log10 Concentration −7.0): 94%
- Mean Optical Densities (T-47D; Log10 Concentration −8.0): 1.664
- Percent Growth (T-47D; Log10 Concentration −8.0): 102%
- GI50 (OVCAR-5): 13.4 µM
- TGI (OVCAR-5): 3.03E−5
- Mean Optical Densities (OVCAR-5; Log10 Concentration −4.0): 0.201
- Percent Growth (OVCAR-5; Log10 Concentration −4.0): −73%
- Mean Optical Densities (OVCAR-5; Log10 Concentration −5.0): 1.240
- Percent Growth (OVCAR-5; Log10 Concentration −5.0): 68%
- Mean Optical Densities (OVCAR-5; Log10 Concentration −6.0): 1.400
- Percent Growth (OVCAR-5; Log10 Concentration −6.0): 89%
- Mean Optical Densities (OVCAR-5; Log10 Concentration −7.0): 1.404
- Percent Growth (OVCAR-5; Log10 Concentration −7.0): 90%
- Mean Optical Densities (OVCAR-5; Log10 Concentration −8.0): 1.415
- Percent Growth (OVCAR-5; Log10 Concentration −8.0): 91%
- GI50 (ACHN): 3.83 µM
- TGI (ACHN): 1.59E−5
- Mean Optical Densities (ACHN; Log10 Concentration −4.0): 0.112
- Percent Growth (ACHN; Log10 Concentration −4.0): −77%
- Mean Optical Densities (ACHN; Log10 Concentration −5.0): 0.773
- Percent Growth (ACHN; Log10 Concentration −5.0): 19%
- Mean Optical Densities (ACHN; Log10 Concentration −6.0): 1.883
- Percent Growth (ACHN; Log10 Concentration −6.0): 93%
- Mean Optical Densities (ACHN; Log10 Concentration −7.0): 1.961
- Percent Growth (ACHN; Log10 Concentration −7.0): 9B
- Mean Optical Densities (ACHN; Log10 Concentration −8.0): 2.010
- Percent Growth (ACHN; Log10 Concentration −8.0): 101%
- GI50 (COLO 205): 4.44 µM
- TGI (COLO 205): 1.76E−5
- Mean Optical Densities (COLO 205; Log10 Concentration −4.0): 0.159
- Percent Growth (COLO 205; Log10 Concentration −4.0): −67%
- Mean Optical Densities (COLO 205; Log10 Concentration −5.0): 0.767
- Percent Growth (COLO 205; Log10 Concentration −5.0): 22%
- Mean Optical Densities (COLO 205; Log10 Concentration −6.0): 1.790
- Percent Growth (COLO 205; Log10 Concentration −6.0): 101%
- Mean Optical Densities (COLO 205; Log10 Concentration −7.0): 1.715
- Percent Growth (COLO 205; Log10 Concentration −7.0): 95%
- Mean Optical Densities (COLO 205; Log10 Concentration −8.0): 1.784
- Percent Growth (COLO 205; Log10 Concentration −8.0): 100%
- GI50 (K-562): 4.25 µM
- TGI (K-562): 2.82E−5
- Mean Optical Densities (K-562; Log10 Concentration −4.0): 0.152
- Percent Growth (K-562; Log10 Concentration −4.0): −25%
- Mean Optical Densities (K-562; Log10 Concentration −5.0): 0.394
- Percent Growth (K-562; Log10 Concentration −5.0): 21%
- Mean Optical Densities (K-562; Log10 Concentration −6.0): 1.109
- Percent Growth (K-562; Log10 Concentration −6.0): 99%
- Mean Optical Densities (K-562; Log10 Concentration −7.0): 1.030
- Percent Growth (K-562; Log10 Concentration −7.0): 91%
- Mean Optical Densities (K-562; Log10 Concentration −8.0): 1.141
- Percent Growth (K-562; Log10 Concentration −8.0): 103%
- GI50 (HS 578T): 16.7 µM
- TGI (HS 578T): >1.00E−4
- Percent Growth (HS 578T; Log10 Concentration −4.0): 5%
- Percent Growth (HS 578T; Log10 Concentration −5.0): 63%
- Percent Growth (HS 578T; Log10 Concentration −6.0): 90%
- Percent Growth (HS 578T; Log10 Concentration −7.0): 86%
- Percent Growth (HS 578T; Log10 Concentration −8.0): 90%
- Mean Optical Densities (HS 578T; Log10 Concentration −4.0): 1.235
- Mean Optical Densities (HS 578T; Log10 Concentration −5.0): 1.827
- Mean Optical Densities (HS 578T; Log10 Concentration −6.0): 2.096
- Mean Optical Densities (HS 578T; Log10 Concentration −7.0): 2.057
- Mean Optical Densities (HS 578T; Log10 Concentration −8.0): 2.099
- GI50 (NCI-H522): 1.54 µM
- TGI (NCI-H522): 3.55E−5
- Mean Optical Densities (NCI-H522; Log10 Concentration −4.0): 0.194
- Percent Growth (NCI-H522; Log10 Concentration −4.0): −78%
- Mean Optical Densities (NCI-H522; Log10 Concentration −5.0): 0.338
- Percent Growth (NCI-H522; Log10 Concentration −5.0): −62%
- Mean Optical Densities (NCI-H522; Log10 Concentration −6.0): 1.747
- Percent Growth (NCI-H522; Log10 Concentration −6.0): 76%
- Mean Optical Densities (NCI-H522; Log10 Concentration −7.0): 1.925
- Percent Growth (NCI-H522; Log10 Concentration −7.0): 92%
- Mean Optical Densities (NCI-H522; Log10 Concentration −8.0): 1.900
- Percent Growth (NCI-H522; Log10 Concentration −8.0): 89%
- GI50 (UO-31): 3.08 µM
- TGI (UO-31): 1.54E−5
- Mean Optical Densities (UO-31; Log10 Concentration −4.0): 0.127
- Percent Growth (UO-31; Log10 Concentration −4.0): −83%
- Mean Optical Densities (UO-31; Log10 Concentration −5.0): 0.983
- Percent Growth (UO-31; Log10 Concentration −5.0): 19%
- Mean Optical Densities (UO-31; Log10 Concentration −6.0): 1.744
- Percent Growth (UO-31; Log10 Concentration −6.0): 80%
- Mean Optical Densities (UO-31; Log10 Concentration −7.0): 1.737
- Percent Growth (UO-31; Log10 Concentration −7.0): 79%
- Mean Optical Densities (UO-31; Log10 Concentration −8.0): 1.731
- Percent Growth (UO-31; Log10 Concentration −8.0): 79%
- GI50 (MDA-MB-435): 7.64 µM
- TGI (MDA-MB-435): 2.27E−5
- Mean Optical Densities (MDA-MB-435; Log10 Concentration −4.0): 0.109
- Percent Growth (MDA-MB-435; Log10 Concentration −4.0): −80%
- Mean Optical Densities (MDA-MB-435; Log10 Concentration −5.0): 1.343
- Percent Growth (MDA-MB-435; Log10 Concentration −5.0): 44%
- Mean Optical Densities (MDA-MB-435; Log10 Concentration −6.0): 2.253
- Percent Growth (MDA-MB-435; Log10 Concentration −6.0): 94%
- Mean Optical Densities (MDA-MB-435; Log10 Concentration −7.0): 2.240
- Percent Growth (MDA-MB-435; Log10 Concentration −7.0): 93%
- Mean Optical Densities (MDA-MB-435; Log10 Concentration −8.0): 2.396
